The text below walks through data of patent US20150044193A1, “COMPOSITIONS AND METHODS FOR THE TREATMENT OF ALTERED a-SYNUCLEIN FUNCTION” (Neuraltus Pharmaceuticals, Inc., priority 2008, published 2015).

One data set concerns SH-SY5Y cells. Briefly: Overt toxicity in SH-SY5Y cells treated with GCase inhibitor. In kind it is cell-based, human. Conditions: SH-SY5Y cells treated with CBE.
Data set [1] deals with α-synuclein. In words: Western blot of α-synuclein in ventral mesencephalon fractions of CBE-treated mice. In kind it is in vivo, C57BL/6 mice. As to conditions: single i.p. 200 mg/kg, 48 h. Here is the method: (§1) The administration paradigm is depicted in FIG. 2. Mice (C57BL/6) were maintained on a 12 h light-dark cycle and given food and drinking water ad libitum. All animal procedures and care methods were approved by the Institutional Animal Care and Usage Committee. In experiments to test the effects of CBE on α-synuclein protein, C57BL/6 male mice, aged 8 weeks, were used as previously described with some modifications (Kanfer et al., 1975, Adachi and Volk, 1977, Kanfer et al., 1982). Mice (n=8/group) received a single i. p. injection of 200 mg/kg CBE (Sigma) in DMSO or the vehicle alone and killed 2 days after injection. For Western blot analyses, brains were removed, dissected on ice and frozen on dry ice until needed (Manning-Bog et al., 2002, Purisai et al., 2005). For experiments utilizing immunohistochemistry, brains were immersion fixed in 4% paraformaldehyde and successively cryoprotected in 10 and 30% sucrose over the course of 72 h (Manning-Bog et al., 2002, Manning-Bog et al., 2003). Brains were sectioned at 40-μm intervals and stored in cryopreservative solution at −20° C. until needed.
Fractions from ventral mesencephalon separated by the centrifugation were utilized for immunoblotting experiments. Following homogenization in 10 mM Tris/1 mM EDTA/protease inhibitor cocktail (1:1000; Sigma, St. Louis, Mo.) by sonication, samples were centrifuged at 1,000×g for […]. The supernatant fraction (S1) was decanted and stored, and the pellet fraction containing nuclei and large membrane fragments were reconstituted in homogenization buffer (P1 fraction). The protein concentration was measured. […]
C57BL/6 mice were exposed to a single injection of CBE and assessed for changes in α-synuclein at 48 h to determine whether diminished GCase activity is associated with alterations in the protein in vivo, specifically within the substantia nigra. […] In tissue homogenates from ventral mesencephalon of CBE vs. DMSO (vehicle)-treated mice, α-synuclein immunoreactivity was assessed by Western blot analysis.
Background: Immunoblotting shows a protein as a band on a membrane.

For a further data set, the system named is GFAP. Briefly: GFAP immunohistochemistry (astroglial activation) in brain of CBE-treated mice. In kind it is in vivo, C57BL/6 mice. Conditions: single 200 mg/kg, 48 h. As for the experimental part: as §1, with “Brains were sectioned at 40-μm intervals and stored in cryopreservative solution at −20° C. until needed.” left out
Substantia nigra-containing tissue sections were immunostained using an antibody for the astrocytic marker, glial fibrillary acidic protein (GFAP). […] Alternatively, it may be that upregulation is responsible for increased α-synuclein levels in astrocytes. α-synuclein has been detected in cultured human astrocytes, and its expression level is responsive to cytokine exposure (Tanji et al., 2001).

Data set [2] has as its system α-synuclein. Briefly: α-synuclein immunohistochemistry in brain of CBE-treated mice. Conditions: single 200 mg/kg, 48 h. In kind it is in vivo, C57BL/6 mice. Here is the method:
as §1, with “needed. […]” for “needed.”
The effects of CBE exposure on α-synuclein within the ventral mesencephalon were also assessed histologically with immunohistochemistry. […]

Data set [3] concerns α-synuclein. In words: Western blot of α-synuclein in non-differentiated SH-SY5Y cells exposed to CBE. In kind it is cell-based, human. Conditions: non-differentiated neuroblastoma cells, 48 h exposure. As for the experimental part: (§2) The treatment paradigm is depicted in FIG. 1. SH-SY5Y cells were grown in Dulbecco's modified Eagle medium with 10% fetal calf serum, 2 mM glutamine, and were subcultured 1:5 with TrypLE (GIBCO/Invitrogen; Carlsbad, Calif.) using standard tissue culture techniques. The cells were differentiated in neurobasal media supplemented with B-27 and 40 μM retinoic acid for 7 days (Pahlman et al., 1984). Cells were exposed to CBE at doses of 0, 12.5, 25, 50, 100 or 200 μM in dimethyl sulfoxide (DMSO; Sigma Chemicals; St. Louis, Mo.) for 48 h at 37° C. At this time, cultures were washed with HBSS and trypsinized for 10 min followed by centrifugation at 1,000×g for 10 min to pellet cells. Media was removed, and cells were lysed in 10 mM Tris/1 mM EDTA/protease inhibitor cocktail (1:1000; Sigma) by sonication. Samples were centrifuged at 1,000×g for 10 min; the supernatant fraction was decanted from particulate fraction. Following determination of protein concentration using the BCA protein assay (Pierce Chemicals, Rockford, Ill.), samples were frozen until used for Western blot analysis experiments.
To test determine if the inhibition of GCase would elicit changes in cellular α-synuclein level, the protein levels were evaluated by using Western blot analysis in non-differentiated SH-SY5Y cells and cells differentiated to the neuronal phenotype, at 48 h following exposure to CBE. […]

Data set [4] relates to α-synuclein mRNA. In words: RT-PCR of α-synuclein mRNA in SH-SY5Y cells treated with CBE. In kind it is cell-based, human. As for the experimental part:
[…] The cDNAs were prepared by reverse transcription (Superscript III; Invitrogen). PCR was performed using the ABI PRISM 7000 Sequence Detection System and primers. The cycle number at which each PCR reaction reached a significant threshold (CT) during the log phase of the amplification was used as a relative measure of transcript expression. The CT of the α-synuclein gene was calibrated against that of the reference gene […].
To test determine if the inhibition of GCase would elicit changes in cellular α-synuclein level, the protein levels were evaluated by using Western blot analysis in non-differentiated SH-SY5Y cells and cells differentiated to the neuronal phenotype, at 48 h following exposure to CBE. […] In order to determine whether increased levels of the protein were due to enhanced transcription, RT-PCR was performed to measure transcript levels in SH-SY5Y treated with CBE. […] These findings indicate that increased α-synuclein levels observed following CBE exposure are not due to enhanced expression (FIG. 3b).

Data set [5] concerns α-synuclein. Briefly: α-synuclein in substantia nigra of aged mice treated sub-chronically with CBE. In kind it is in vivo. As to conditions: sub-chronic CBE vs. DMSO. The source says: It is likely that sustained glucocerebrosidase inhibition promotes increased levels of the α-synuclein expression protein.
The subject of data set [6] is α-synuclein mRNA. As to conditions: astroglial cultures challenged with CBE; cited from earlier work.
The next data set relates to nigral neurons. Briefly: Silver grain accumulation (degenerating neurons) in substantia nigra of CBE-treated mice. In kind it is in vivo. Conditions: CBE- vs. DMSO-treated mice.
The subject of data set [7] is α-synuclein. Briefly: Western blot of α-synuclein in differentiated SH-SY5Y cells exposed to CBE. In kind it is cell-based, human. As for the experimental part: as §2
Fractions from ventral mesencephalon separated by the centrifugation were utilized for immunoblotting experiments. Following homogenization in 10 mM Tris/1 mM EDTA/protease inhibitor cocktail (1:1000; Sigma, St. Louis, Mo.) by sonication, samples were centrifuged at 1,000×g for […]. The supernatant fraction (S1) was decanted and stored, and the pellet fraction containing nuclei and large membrane fragments were reconstituted in homogenization buffer (P1 fraction). The protein concentration was measured. After proteins were separated by SDS-PAGE and transferred to nitrocellulose, the blots were blocked and incubated overnight at 4° C. with anti-α-synuclein (Signet; Novus Biologicals, Littleton, Colo.; Abcam, Cambridge, Mass.; Santa Cruz Biotechnology, Santa Cruz, Calif.) or anti-GAPDH (Sigma). Appropriate secondary antibodies conjugated to HRP were applied, and blots were incubated with a chemiluminescent substrate (Pierce) and exposed to Kodak X-Omat Blue Film (Kodak, Rochester, N.Y.). Mouse or rabbit IgG was used in lieu of the primary antibody to ensure specificity in control experiments.
To test determine if the inhibition of GCase would elicit changes in cellular α-synuclein level, the protein levels were evaluated by using Western blot analysis in non-differentiated SH-SY5Y cells and cells differentiated to the neuronal phenotype, at 48 h following exposure to CBE. […] In order to determine whether increased levels of the protein were due to enhanced transcription, RT-PCR was performed to measure transcript levels in SH-SY5Y treated with CBE. […]

Each structure is given as a SMILES string. “Also recorded” adds a separate entry of the source.

Turning to `O[C@H]1[C@H](O)[C@@H](O)[C@@H]2O[C@@H]2[C@@H]1O` (racemic) [CBE, Conduritol B epoxide], the “overt toxicity within cells” value in the data set on SH-SY5Y cells was “no overt toxicity”. Also, the “higher molecular forms of α-synuclein (SDS-stable aggregates)” value with α-synuclein [1] is “No immunoreactivity for higher molecular forms of α-synuclein”. In the data set on α-synuclein [1] (CBE vs. DMSO, 200 mg/kg), the “α-synuclein levels in P1 (particulate) fraction, monomeric 19 kDa band” value is listed as “Denser α-synuclein-positive bands; also recorded: levels of α-synuclein were increased in the particulate fraction; also recorded: an increase in α-synuclein levels” and the “α-synuclein levels in S1 (supernatant) fraction” value is recorded as “no alteration; also recorded: no change”. The “α-synuclein within astrocytes of substantia nigra (dual-label immunofluorescence)” value in the data set on GFAP is listed as “enhanced α-synuclein was also detected within activated astrocytes; also recorded: colocalization of α-synuclein immunoreactivity was observed within astrocytes”. The “GFAP immunoreactivity / astroglial activation in substantia nigra” value in the data set with GFAP (CBE vs. vehicle) is given as “astroglial activation, as observed by GFAP immunoreactivity, was apparent; also recorded: apparent increase; also recorded: Glial activation was robust”. In addition, the “α-synuclein in other brain regions (cortex, hippocampus)” value with α-synuclein [2] was “No obvious changes in α-synuclein; also recorded: No alteration in protein levels”. The “α-synuclein immunoreactivity in substantia nigra neurons” value with α-synuclein [2] (CBE vs. vehicle) was “robust immunoreactivity was observed within the cell bodies; also recorded: enhanced immunoreactivity for α-synuclein was detected within the cytoplasm and cell nuclei; also recorded: accumulation of the protein within neuronal cell bodies; also recorded: apparent increase; also recorded: accumulation of α-synuclein (FITC) within cell bodies and processes”. For the same compound, the “α-synuclein protein levels (Western blot)” value with α-synuclein [3] is “No change in α-synuclein was detected”. In the data set with α-synuclein mRNA [4] (SH-SY5Y, any dose tested, 24 h following CBE treatment), the “α-synuclein gene expression (RT-PCR)” value was “No change in α-synuclein gene expression was detected”. Besides, in the data set on α-synuclein mRNA [4] (differentiated SH-SY5Y, increasing concentrations of CBE, (FIG. 3B legend)), the “α-synuclein transcription (mRNA, RT-PCR)” value is given as “No change in α-synuclein transcription was detected”. Also, in the data set on α-synuclein [5], the “α-synuclein expression within substantia nigra” value is “Increased α-synuclein expression”. In addition, the “expression of α-synuclein mRNA” value with α-synuclein mRNA [6] is “enhanced expression of α-synuclein mRNA”. For the same compound, the “silver grains in nigral neurons (degenerating neurons)” value with nigral neurons is given as “Accumulation of silver grains in nigral neurons”. Further, the “immunoreactivity for α-synuclein in tissue culture” value in the data set on α-synuclein [7] (CBE-exposed neuroblastoma cells differentiated to neuronal phenotype) is listed as “increased immunoreactivity for α-synuclein”. In addition, the “CBE concentrations at which increased α-synuclein levels were seen” value with α-synuclein [7] (differentiated SH-SY5Y cells, 48 h, Western blot) was in the range of 50 to 200 µM. In the data set with α-synuclein [7] (differentiated SH-SY5Y cells, 48 h, doses 0-200 μM tested), the “dose at which increased α-synuclein protein levels peak” value amounted to 50 µM. Besides, in the data set on α-synuclein [7] (differentiated SH-SY5Y cells, 48 h exposure, CBE vs. vehicle), the “α-synuclein protein levels (Western blot)” value is on record as “increased levels of α-synuclein protein were observed”.
